How the values were obtained:
4T1 tumor cells [1] = assay: Anti-tumor efficacy of Compound 1 and Opdivo in the 4T1 humanized mouse model; assay type: in vivo; settings: for TGI at day 13: p<0.0001
Description: (§1) 4T1 tumor cells (ATCC, CRL-2539™) are maintained in vitro as a monolayer culture in RPMI 1640 medium supplemented with 10% heat inactivated fetal bovine serum at 37° C. in an atmosphere of 5% CO2 in air. The tumor cells are routinely subcultured three times weekly by trypsin-EDTA treatment. Each mouse is inoculated subcutaneously at the fourth mammary pad with 1×10^5 in 0.05 mL base medium for tumor development.
(§2) Compound 1 plus Opdivo (nivolumab): 40 BALB/c mice are inoculated subcutaneously at the fourth mammary pad with 4T1 cells for tumor development. On the six days of post inoculation, the mice are assigned into 4 groups using stratified randomization with 10 mice in each group based upon their tumor volume. The treatments are started from the day of randomization, and the groups receive the following treatments:
Group 1: Vehicle control; Group 2: Opdivio, 10 mg/kg, i.p., BIW; Group 3: Compound 1, 60 mg/kg, p.o., BID and Group 4: Compound 1, 60 mg/kg, p.o., BID+Opdivio, 10 mg/kg, i.p., BIW respectively.
(§3) The tumor sizes are measured three times per week during the treatment.
The tumor growth inhibition effect of the combination of Compound 1 and Opdivo is examined. The tumor inhibition rate is calculated as:
TGI (%)=(1−(the volume of the tumor on the day of administration−the volume of the tumor on the first day of administration (treatment group))/(the volume of the tumor on the day of administration−the volume of the tumor on the first day (vehicle group)))×100%.

4T1 tumor cells [2] = assay: Anti-tumor efficacy of Compound 1 and Keytruda in the 4T1 humanized mouse model; assay type: in vivo
Description: as §1
as §2, with “1 plus Keytruda (pembrolizumab): 40 BALB/c” for “1 plus Opdivo (nivolumab): 40 BALB/c”, “the mice were assigned into” for “the mice are assigned into”, “The treatments were started from” for “The treatments are started from”
Group 1: Vehicle control; Group 2: Keytruda, 10 mg/kg, i.p., BIW; Group 3: Compound 1, 60 mg/kg, p.o., BID, and Group 4: Compound 1, 60 mg/kg, p.o., BID+Keytruda, 10 mg/kg, i.p., BIW respectively.
as §3
The tumor growth inhibition effect of the combination of Compound 1 and Keytruda is examined. The tumor inhibition rate is calculated as:
TGI (%)=(1−(the volume of the tumor on the day of administration−the volume of the tumor on the first day of administration (treatment group))/(the volume of the tumor on the day of administration−the volume of the tumor on the first day (vehicle group))×100%.

[3] = system: PD-L1 suppressed human T cells; assay: Activation of T-Cell Suppressed by PD-L1 (co-culture with PD-L1 transfected Hep3B cells, IFN-γ readout); assay type: cell-based; settings: dose-dependent; Keytruda as positive control
Excerpt: To measure the cellular activity of the compound, a protocol of Activation of T-Cell Suppressed by PD-L1 is used. In this protocol, human Hep3B cells are stably transfected with human PD-L1. The human T cells containing PD-1 are inactivated by co-culturing with these PD-L1 transfected cells. Then anti-PD-1 antibody Keytruda® (pembrolizumab) is selected as the reference to profile the compound for its activation of PD-L1 suppressed human T-cells. […] Keytruda is used as a positive control.

[4] = system: B16F10 tumor cells (melanoma); assay: Anti-tumor efficacy in the B16F10 model in C57BL/6 mice; assay type: in vivo; settings: PO, BID
Description: Materials required for the experiment: Antibody: mouse PD-1 antibody, Product specifications: 7.09 mg/mL (50 mg/mL), Lot No.: 695318A1 purchased from BioXcell, storage at 4° C. Experimental animals 60 C57BL/6 mice, female, 6-8 weeks old, 17-21 g, purchased from Shanghai Lingchang Biotechnology Co. Ltd. Formulation materials: castor oil (Cremophor RH40), CAS No.: 61788-85-0, Lot No.: 29761847G0, purchased from Shanghai Xietai Chemical Co. Ltd.; β-cyclodextrin (SBE-β-CD), CAS No.: 128446-35-5, Lot No.: 20180110, purchased from Shanghai Shaoyuan Chemical Co. Ltd.; DMEM culture medium, Art. No.: 11995-065, Lot No.: 2025378, purchased from Gibco Co. Ltd.; PBS, Art. […]
Cell preparation and implantation: The B16-F10 tumor cells (ATCC CRL-6475™) are maintained in vitro as a monolayer culture in DMEM medium supplemented with 10% heat inactivated fetal bovine serum at 37° C. in an atmosphere of 5% CO2 in air. […] The cells growing to a confluency around 70%-80% are harvested and counted for tumor inoculation. […]
Procedure: The mice in the vehicle group are weighed and recorded in the electronic balance according to their numbers. […]
The mice in the antibody (10 mg/kg) group are weighed and recorded in the electronic balance according to their numbers. […]
The mice in the compound (30 mg/kg) group are weighed and recorded in the electronic balance according to their numbers. […]

nivolumab [Opdivo]
TGI at day 13 (4T1 tumor cells [1]; 10 mg/kg, IP, BIW): 21.88%
time after dosing within which mice are found dead (4T1 tumor cells [1]; after the 5th dose of Opdivo at day 14, 10 mg/kg i.p. BIW, mice): ≤ 1 h

pembrolizumab [Keytruda]
TGI at day 10 (4T1 tumor cells [2]; 10 mg/kg, IP, BIW, p>0.5): 9.12%
time after dosing within which mice are found dead (4T1 tumor cells [2]; after the 4th dose of Keytruda at day 10, 10 mg/kg i.p. BIW, mice): ≤ 1 h

Cc1c(/C=C/c2cc(CN[C@@](C)(CO)C(=O)O)ccc2C(F)(F)F)cccc1-c1ccccc1 [Compound 1]
TGI at day 13 (4T1 tumor cells [1]; 60 mg/kg, PO, BID): 21.70%
activation of PD-L1 suppressed human T cells, indicated by increase of cytokine IFN-γ [3]: effectively restores the activation of the PD-L1 suppressed human T cells
growth of subcutaneous transplanted melanoma cell line in mice ([4]; C57BL/6 mice): significantly inhibits the growth
tolerability in C57BL/6 mice ([4]; up to 120 mg/kg): well tolerated in C57BL/6 mice without obvious adverse reactions
TGI at day 10 (4T1 tumor cells [2]; 60 mg/kg, PO, BID, p<0.0001): 22.36%

Source: patent US20230046904A1, “COMBINATION OF SMALL MOLECULE INHIBITOR OF THE PD-1/PD-L1 INTERACTION AND ANTI-PD-1 ANTIBODY FOR TREATING CANCER” (GUANGZHOU MAXINOVEL PHARMACEUTICALS CO., LTD., priority 2019, published 2023)
